According to patent US8722687B2, “Imidazo [1,2-A]pyridine derivatives as FGFR kinase inhibitors for use in therapy” (Astex Therapeutics Ltd, priority 2009, dated 2014):

Target: T1, VEGFR2 (Homo sapiens, UniProt P35968)
T1 construct: purchased Upstate
Test: VEGFR2 in vitro kinase inhibitory activity assay
Format: biochemical
Conditions: read-out: VEGFR2 IC50(μM) or % I
Description: FGFR3, VEGFR2 and PDGFR in vitro Kinase Inhibitory Activity Assays
Enzymes (from Upstate), prepared at 2× final concentration, were incubated with test compounds, biotinylated Flt3 substrate (biotin-VASSDNEYFYVDF) (Cell Signalling Technology Inc.) and ATP in the appropriate assay buffer (Table 1). The reaction was allowed to proceed for 3 hours (FGFR3), 1 hour (VEGFR2, PDGFR-beta) at room temperature on a plate shaker at 700 rpm before being stopped with 35 mM EDTA, pH 8 (FGFR3, VEGFR2) or 55 mM EDTA, pH 8 (PDGFR-beta). 5× detection mix/50 mM HEPES pH 7.5, 0.1% BSA, 11.34 nM Eu-anti-pY (PY20) (PerkinElmer) 74 nM SA-XL665 (Cisbio) for FGFR3, 50 mM HEPES, pH 7.5, 0.1% BSA, 11.34 nM Eu-anti-pY (PY20), 187.5 nM SA-XL665 for VEGFR2 and 50 mM HEPES, pH 7.5, 0.1% BSA, 11.34 nM Eu-anti-pY (PT66) (PerkinElmer), 375 nM SA-XL665 (Cisbio) for PDGFR-beta) was then added to each well and the plate sealed and incubated at room temperature for one hour on a plate shaker at 700 rpm. The plate was then read on a Packard Fusion plate reader or a BMG Pherastar both in TRF mode.
Kinase Assay buffers were:
B: 50 mM HEPES pH 7.5, 6 mM MnCl2, 1 mM DTT, 0.01% TritonX-100, 0.1 mM Sodium orthovanadate

T1 sequence (P35968 20-1356): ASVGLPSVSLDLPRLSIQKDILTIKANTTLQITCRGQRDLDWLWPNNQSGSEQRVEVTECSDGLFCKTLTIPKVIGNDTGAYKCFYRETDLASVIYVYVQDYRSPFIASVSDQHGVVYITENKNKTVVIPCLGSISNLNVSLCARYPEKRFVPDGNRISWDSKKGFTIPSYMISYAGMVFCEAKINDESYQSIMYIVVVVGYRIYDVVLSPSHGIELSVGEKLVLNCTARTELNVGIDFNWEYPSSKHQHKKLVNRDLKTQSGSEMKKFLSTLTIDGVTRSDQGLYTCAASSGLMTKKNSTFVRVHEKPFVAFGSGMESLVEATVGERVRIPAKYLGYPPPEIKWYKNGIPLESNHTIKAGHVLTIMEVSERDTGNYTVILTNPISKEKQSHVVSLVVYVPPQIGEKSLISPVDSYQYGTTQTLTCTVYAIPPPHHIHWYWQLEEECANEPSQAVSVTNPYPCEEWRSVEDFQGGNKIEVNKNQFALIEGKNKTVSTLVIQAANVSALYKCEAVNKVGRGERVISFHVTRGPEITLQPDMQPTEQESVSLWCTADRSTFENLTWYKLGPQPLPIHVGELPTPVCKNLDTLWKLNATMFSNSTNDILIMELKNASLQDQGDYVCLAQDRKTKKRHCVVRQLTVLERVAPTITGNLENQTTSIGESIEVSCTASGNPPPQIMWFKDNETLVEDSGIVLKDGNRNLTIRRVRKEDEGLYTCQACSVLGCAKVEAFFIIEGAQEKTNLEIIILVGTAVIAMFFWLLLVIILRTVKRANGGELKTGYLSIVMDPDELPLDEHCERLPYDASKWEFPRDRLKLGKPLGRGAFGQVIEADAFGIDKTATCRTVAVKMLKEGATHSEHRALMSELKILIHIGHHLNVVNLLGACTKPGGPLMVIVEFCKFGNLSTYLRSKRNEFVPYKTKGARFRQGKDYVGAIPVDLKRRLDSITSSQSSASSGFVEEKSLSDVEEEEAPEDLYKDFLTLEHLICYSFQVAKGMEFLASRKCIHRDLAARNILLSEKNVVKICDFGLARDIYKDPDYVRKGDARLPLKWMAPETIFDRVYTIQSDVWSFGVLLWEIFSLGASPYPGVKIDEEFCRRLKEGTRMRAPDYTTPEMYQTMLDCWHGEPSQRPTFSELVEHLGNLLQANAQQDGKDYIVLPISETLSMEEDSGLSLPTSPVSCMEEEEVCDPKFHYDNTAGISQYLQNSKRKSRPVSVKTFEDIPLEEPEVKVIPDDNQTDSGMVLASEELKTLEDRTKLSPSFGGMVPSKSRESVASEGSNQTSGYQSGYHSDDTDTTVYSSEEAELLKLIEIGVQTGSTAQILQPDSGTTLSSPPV

IC50 | Compound | also measured
0.029 µM | Cc1nnc(-c2ccn3c(-c4cc(NC(=O)NCC(F)(F)F)cc(OC(C)C)c4)cnc3c2)s1.Cl [Compound F-20, 1-{3-Isopropoxy-5-[7-(5-methyl-[1,3,4]thiadiazol-2-yl)-imidazo[1,2-a]pyridin-3-yl]-phenyl}-3-(2,2,2-trifluoro-ethyl)-urea] | 
0.4 µM | CCOc1cc(NC(=O)NCC(F)(F)F)cc(-c2cnc3cc(-c4ccnc(C(F)(F)F)n4)ccn23)c1 [Compound F-16, 1-{3-Ethoxy-5-[7-(2-trifluoromethyl-pyrimidin-4-yl)-imidazo[1,2-a]pyridin-3-yl]-phenyl}-3-(2,2,2-trifluoro-ethyl)-urea] | 
0.074 µM | CC(C)Oc1cc(NC(=O)NCC(F)(F)F)cc(-c2cnc3cc(C(=O)C4CC4)ccn23)c1 [Compound F-6, 1-[3-(7-Cyclopropanecarbonyl-imidazo[1,2-a]pyridin-3-yl)-5-isopropoxy-phenyl]-3-(2,2,2-trifluoro-ethyl)-urea] | 
0.48 µM | Cc1nc(-c2ccn3c(-c4cc(NC(=O)NCC(F)(F)F)cc(OC(C)C)c4)cnc3c2)ccc1F [Compound F-3, 1-{3-[7-(5-Fluoro-6-methyl-pyridin-2-yl)-imidazo[1,2-a]pyridin-3-yl]-5-isopropoxy-phenyl}-3-(2,2,2-trifluoro-ethyl)-urea] | 
1.14 µM | CC(C)Oc1cc(NC(=O)NCC(F)(F)F)cc(-c2cnc3cc(-c4ncccn4)ccn23)c1 [Compound F-2, 1-[3-Isopropoxy-5-(7-pyrimidin-2-yl-imidazo[1,2-a]pyridin-3-yl)-phenyl]-3-(2,2,2-trifluoro-ethyl)-urea] | 
 | CC(C)Oc1cc(NC(=O)NCC(F)(F)F)cc(-c2cnc3cc(-c4nccc(C(C)C)n4)ccn23)c1 [Compound F-29, 1-{3-Isopropoxy-5-[7-(4-isopropyl-pyrimidin-2-yl)-imidazo[1,2-a]pyridin-3-yl]-phenyl}-3-(2,2,2-trifluoroethyl)-urea] | inhibition at 10 µM (1 h, % I at 10 μM): 53%
0.36 µM | CCNC(=O)Nc1cc(OC(C)C)cc(-c2cnc3cc(-c4nncs4)ccn23)c1 [Compound F-10, 1-Ethyl-3-[3-isopropoxy-5-(7-[1,3,4]thiadiazol-2-yl-imidazo[1,2-a]pyridin-3-yl)-phenyl]-urea] | 
0.087 µM | CCNC(=O)Nc1cc(OC(C)C)cc(-c2cnc3cc(-c4nnc(C)s4)ccn23)c1 [Compound F-23, 1-Ethyl-3-{3-isopropoxy-5-[7-(5-methyl-[1,3,4]thiadiazol-2-yl)-imidazo[1,2-a]pyridin-3-yl]-phenyl}-urea] | 
0.1 µM | Cc1nc(N)cc(-c2ccn3c(-c4cc(NC(=O)NCC(F)(F)F)cc(OC(C)C)c4)cnc3c2)n1 [Compound F-4, 1-{3-[7-(6-Amino-2-methyl-pyrimidin-4-yl)-imidazo[1,2-a]pyridin-3-yl]-5-isopropoxy-phenyl}-3-(2,2,2-trifluoro-ethyl)-urea] | 
1.2 µM | CC(C)Oc1cc(NC(=O)NCC(F)(F)F)cc(-c2cnc3cc(-c4ccnc(C(F)(F)F)n4)ccn23)c1 [Compound F-8, 1-{3-Isopropoxy-5-[7-(2-trifluoromethyl-pyrimidin-4-yl)-imidazo[1,2-a]pyridin-3-yl]-phenyl}-3-(2,2,2-trifluoro-ethyl)-urea] | 
0.17 µM | COCc1cc(NC(=O)NCC(F)(F)F)cc(-c2cnc3cc(-c4nnc(C)o4)ccn23)c1 [Compound F-7, 1-{3-Methoxymethyl-5-[7-(5-methyl-[1,3,4]oxadiazol-2-yl)-imidazo[1,2-a]pyridin-3-yl]-phenyl}-3-(2,2,2-trifluoro-ethyl)-urea] | 
0.67 µM | CC(C)Oc1cc(NC(=O)NCC(F)(F)F)cc(-c2cnc3cc(OCCCO)ccn23)c1 [Compound F-18, 1-{3-[7-(3-Hydroxy-propoxy)-imidazo[1,2-a]pyridin-3-yl]-5-isopropoxy-phenyl}-3-(2,2,2-trifluoro-ethyl)-urea] | 
0.077 µM | Cc1cn(-c2ccn3c(-c4cc(NC(=O)NCC(F)(F)F)cc(OC(C)C)c4)cnc3c2)cn1 [Compound F-28, 1-{3-Isopropoxy-5-[7-(4-methylimidazol-1-yl)-imidazo[1,2-a]pyridin-3-yl]-phenyl}-3-(2,2,2-trifluoro-ethyl)-urea] | 
0.51 µM | CC(C)Oc1cc(NC(=O)NCC(F)(F)F)cc(-c2cnc3cc(OCCO)ccn23)c1 [Compound F-17, 1-{3-[7-(2-Hydroxy-ethoxy)-imidazo[1,2-a]pyridin-3-yl]-5-isopropoxy-phenyl}-3-(2,2,2-trifluoro-ethyl)-urea] | 
0.092 µM | CC(C)Oc1cc(NC(=O)NCC(F)(F)F)cc(-c2cnc3cc(-c4nncs4)ccn23)c1.Cl [Compound F-19, 1-[3-Isopropoxy-5-(7-[1,3,4]thiadiazol-2-yl-imidazo[1,2-a]pyridin-3-yl)-phenyl]-3-(2,2,2-trifluoro-ethyl)-urea] | 
0.057 µM | COCc1cc(NC(=O)NCC(F)(F)F)cc(-c2cnc3cc(-c4ccnc(C(F)(F)F)n4)ccn23)c1 [Compound F-9, 1-{3-Methoxymethyl-5-[7-(2-trifluormethyl-pyrimidin-4-yl)-imidazo[1,2-a]pyridin-3-yl]-phenyl}-3-(2,2,2-trifluoro-ethyl)-urea] | 
1.2 µM | CC(C)Oc1cc(NC(=O)NCC(F)(F)F)cc(-c2cnc3cc(-c4nccc(C(C)(C)CO)n4)ccn23)c1 [Compound F-27, 1-(3-{7-[4-(2-Hydroxy-1,1-dimethylethyl)-pyrimidin-2-yl]-imidazo[1,2-a]pyridin-3-yl}-5-isopropoxy-phenyl)-3-(2,2,2-trifluoro-ethyl)-urea] | 
1.35 µM | CC(C)Oc1cc(NC(=O)NCC(F)(F)F)cc(-c2cnc3cc(-c4ncc(F)c(N)n4)ccn23)c1 [Compound F-1, 1-{3-[7-(4-Amino-5-fluoro-pyrimidin-2-yl)-imidazo[1,2-a]pyridin-3-yl]-5-isopropoxy-phenyl}-3-(2,2,2-trifluoro-ethyl)-urea] | 
0.34 µM | CCOc1cc(NC(=O)NCC(F)(F)F)cc(-c2cnc3cc(-c4nnc(C)o4)ccn23)c1 [Compound F-15, 1-{3-Ethoxy-5-[7-(5-methyl-[1,3,4]oxadiazol-2-yl)-imidazo[1,2-a]pyridin-3-yl]-phenyl}-3-(2,2,2-trifluoro-ethyl)-urea] | 
 | Cc1nnc(-c2ccn3c(-c4cc(NC(=O)NCC(F)(F)F)cc(OC5CCC5)c4)cnc3c2)o1 [Compound F-11, 1-{3-Cyclobutoxy-5-[7-(5-methyl-[1,3,4]oxadiazol-2-yl)-imidazo[1,2-a]pyridin-3-yl]-phenyl}-3-(2,2,2-trifluoro-ethyl)-urea] | inhibition at 1 µM (1 h, % I at 1 μM): 59%
 | CC(C)Oc1cc(NC(=O)NCC(F)(F)F)cc(-c2cnc3cc(N4CCC(F)(F)CC4)ccn23)c1 [Compound F-13, 1-{3-[7-(4,4-Difluoro-piperidin-1-yl)-imidazo[1,2-a]pyridin-3-yl]-5-isopropoxy-phenyl}-3-(2,2,2-trifluoro-ethyl)-urea] | inhibition at 3 µM (1 h, % I at 3 μM): 55%
0.635 µM | Cc1nnc(-c2ccn3c(-c4cc(NC(=O)NCC(F)(F)F)cc(OC(C)C)c4)cnc3c2)o1 [Compound F-5, 1-{3-Isopropoxy-5-[7-(5-methyl-[1,3,4]oxadiazol-2-yl)-imidazo[1,2-a]pyridin-3-yl]-phenyl}-3-(2,2,2-trifluoro-ethyl)-urea] | 
